Experiments:
[1] = tested on: DIO mice; assay: Weight loss effect in DIO mice obesity model; type: in vivo; design: Cumulative food intake / Fasting blood glucose / Insulin / Serum TC / ALT: unit not given here; settings: for Insulin resistance index / Serum TC / Fasting blood glucose / Insulin / Body weight / Cumulative food intake / Liver Weight / ALT: Mean±SEM, 10 mice; for Insulin: D30 serum; for Body weight / Cumulative food intake / Liver Weight / Total abdominal fat: s.c. once every 3 days for 4 weeks; for Total abdominal fat: sum of perirenal and paratesticular fat; for ALT: serum
Procedure: In this study, 26-week-old male DIO mice were used. DIO mice were housed in appropriate cages. DIO mice were housed in an environment-monitored and well-ventilated SPF-grade animal room, with the temperature maintained between 20 and 26°C and relative humidity between 40% and 70%. […] The mice received food and water ad libitum. […] The mice were subcutaneously administrated once every 3 days for 4 consecutive weeks. […] Food intake was measured once daily after administration. RBG was measured before grouping and at 48 h after each administration. After fasted for 5 h on D30 (no water deprivation was required), FBG and glycated hemoglobin A1c (HbA1c) were detected, and blood was collected intravenously to separate the serum. A mouse insulin ELISA kit was used to detect the insulin content in the serum, and a biochemistry analyser was used to detect total cholesterol (TC), TG, low-density lipoprotein cholesterol (LDL), high-density lipoprotein cholesterol (HDL), free fatty acid (FFA), ALT, and aspartate aminotransferase (AST) content. The liver was collected, the perirenal and paratesticular fat tissues were separated and weighed, the organ-body ratio was calculated. The liver was stained with HE and Oil Red O for pathological scoring. The data results were statistically analyzed using one-way analysis of variance (ANOVA). A Levene's test was performed to test for variance homogeneity. If the result was homogeneous (P>0.05), a one-way analysis of variance (ANOVA) would be performed. […] In the case of heterogeneity of variance (P ≤0.05 ), a Dunnett's T3 test would be performed. Results were expressed as mean and standard deviation (Mean ± SEM). The test level was 0.05. Both statistical significance and biological significance were considered when analyzing the results.

[2] = target: T1, rabbit GIPR (Oryctolagus cuniculus, UniProt G1T265); assay: Agonistic activity on GIPR of different species (LANCE Ultra cAMP assay): rabbit; type: cell-based; settings: ratio of EC50 value of other species to human EC50 value
T1 construct: expressed in transfected cells; host or cells: CHO-K1 (transient)
T1 sequence (G1T265 23-468): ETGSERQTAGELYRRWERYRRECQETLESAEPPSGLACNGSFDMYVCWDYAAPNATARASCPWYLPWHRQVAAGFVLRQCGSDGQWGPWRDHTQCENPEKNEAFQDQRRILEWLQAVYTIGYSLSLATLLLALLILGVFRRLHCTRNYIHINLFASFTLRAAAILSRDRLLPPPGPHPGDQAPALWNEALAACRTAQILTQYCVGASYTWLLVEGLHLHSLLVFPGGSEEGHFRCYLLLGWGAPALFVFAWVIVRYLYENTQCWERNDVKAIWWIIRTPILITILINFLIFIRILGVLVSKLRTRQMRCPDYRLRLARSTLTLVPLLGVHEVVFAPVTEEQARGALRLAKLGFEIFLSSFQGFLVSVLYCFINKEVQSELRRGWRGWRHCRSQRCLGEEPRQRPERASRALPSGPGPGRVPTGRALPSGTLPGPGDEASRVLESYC
Procedure: CHO-K1 cells were seeded in a 6-well plate at 0.6×10^6 cells/well and incubated overnight in an incubator at a temperature of 37 °C and a carbon dioxide concentration of 5%. The next day, CHO-K1 cell media were replaced. Then two tubes A and B were prepared for each plasmid. 100 µL Opti-MEM was added to tube A, then 4 µL Lipofectamine™ 3000 was added and mixed uniformly. 100 µL Opti-MEM was firstly added to tube B, then 2 µg of one of the plasmids (human GIPR-pcDNA5 (+) plasmid, dog GIPR-pcDNA5 (+) plasmid, mouse GIPR-pcDNA5 (+) plasmid, rat GIPR-pcDNA5 (+) plasmid, rabbit GIPR-pcDNA5 (+) plasmid, monkey GIPR-pcDNA5 (+) plasmid) was added and mixed uniformly, and 4 µL P3000™ was added to tube B and mixed uniformly (the ratio of plasmid to transfection reagent was 1 µg: 2 µL). […]
18-20 hours after transfection, human GIPR-CHO, dog GIPR-CHO, mouse GIPR-CHO, rat GIPR-CHO, rabbit GIPR-CHO, and monkey GIPR-CHO cells were resuspended in 1×Casein Stimulation Buffer (HBSS, 5 mM HEPES, 0.5 mM IBMX, 0.1% casein, pH7.4), and seeded into a 384-well cell culture plate at 9 µL/well (cell numbers being 1000, 2000, 2000, 2000, 2000, 2000 cells/well, respectively). […] The readings at 665 nm and 620 nm were determined with a 330 nm excitation light on a microplate reader. The 665 nm/620 nm reading ratio was calculated. […]

[3] = 0.3 nmol/kg s.c. once every 3 days
[4] = 1 nmol/kg s.c. once every 3 days
[5] = 3 nmol/kg s.c. once every 3 days
[6] = 30 nmol/kg s.c. once every 3 days

Structure (SMILES): CC[C@H](C)[C@H](NC(=O)C(C)(C)NC(=O)[C@H](Cc1ccc(O)cc1)NC(=O)[C@H](CC(=O)O)NC(=O)[C@H](CO)NC(=O)[C@@H](NC(=O)C(C)(Cc1ccccc1)NC(=O)[C@@H](NC(=O)CNC(=O)[C@H](CCC(=O)O)NC(=O)C(C)(C)NC(=O)[C@@H](N)Cc1ccc(O)cc1)[C@@H](C)O)[C@@H](C)O)C(=O)NC(C)(C)C(=O)N[C@@H](CC(C)C)C(=O)N[C@@H](CC(=O)O)C(=O)N[C@@H](CCCCN)C(=O)N[C@@H](CCC(N)=O)C(=O)N[C@@H](C)C(=O)N[C@@H](CCC(N)=O)C(=O)N[C@@H](C)C(=O)N[C@@H](CCC(=O)O)C(=O)N[C@@H](Cc1ccccc1)C(=O)N[C@H](C(=O)N[C@@H](CCCCNC(=O)COCCOCCNC(=O)COCCOCCNC(=O)COCCOCCNC(=O)CC[C@H](NC(=O)CCCCCCCCCCCCCCCCCCCCC(=O)O)C(=O)O)C(=O)N[C@@H](Cc1c[nH]c2ccccc12)C(=O)N[C@@H](CC(C)C)C(=O)N[C@@H](CC(C)C)C(=O)N[C@@H](CCCCN)C(=O)NCC(=O)NCC(=O)N1CCC[C@H]1C(=O)N[C@@H](CO)C(=O)N[C@@H](CO)C(=O)NCC(=O)N[C@@H](C)C(=O)N1CCC[C@H]1C(=O)N1CCC[C@H]1C(=O)N1CCC[C@H]1C(=O)N[C@@H](CO)C(=O)N[C@@H](CCCCN)C(N)=O)C(C)C (stereo partly shown) [Compound P016]
- Insulin resistance index [1, 3]: 43.94±6.288
- Serum TC [1, 3]: 4.07±0.26
- Insulin resistance index [1, 4]: 21.532±3.705
- Serum TC [1, 4]: 3.26±0.20
- Insulin resistance index [1, 5]: 11.991±1.907
- Serum TC [1, 5]: 2.61±0.13
- Insulin resistance index [1, 6]: 5.179±1.178
- Serum TC [1, 6]: 2.50±0.18
- Fasting blood glucose ([1]; D30, 0.3 nmol/kg s.c. once every 3 days): 13.78±0.39
- Fasting blood glucose ([1]; D30, 1 nmol/kg s.c. once every 3 days): 11.23±0.40
- Fasting blood glucose ([1]; D30, 3 nmol/kg s.c. once every 3 days): 10.36±0.67
- Fasting blood glucose ([1]; D30, 30 nmol/kg s.c. once every 3 days): 8.39±0.30
- Insulin [1, 3]: 3.285±0.481
- Insulin [1, 4]: 1.911±0.29
- Insulin [1, 5]: 1.196±0.185
- Insulin [1, 6]: 0.624±0.130
- Body weight ([1]; 0.3 nmol/kg): 45.4 ± 1.3 g
- Cumulative food intake ([1]; 0.3 nmol/kg): 75.75±2.81
- Liver Weight ([1]; 0.3 nmol/kg): 1.552 ± 0.106 g
- Total abdominal fat ([1]; 0.3 nmol/kg): 2.631 ± 0.069 g
- Body weight ([1]; 1 nmol/kg): 38.3 ± 1.1 g
- Cumulative food intake ([1]; 1 nmol/kg): 61.40±1.58
- Liver Weight ([1]; 1 nmol/kg): 1.191 ± 0.075 g
- Total abdominal fat ([1]; 1 nmol/kg): 1.849 ± 0.181 g
- Body weight ([1]; 3 nmol/kg): 34.1 ± 0.7 g
- Cumulative food intake ([1]; 3 nmol/kg): 55.47±2.72
- Liver Weight ([1]; 3 nmol/kg): 1.069 ± 0.029 g
- Total abdominal fat ([1]; 3 nmol/kg): 0.972 ± 0.076 g
- Body weight ([1]; 30 nmol/kg): 29 ± 0.7 g
- Cumulative food intake ([1]; 30 nmol/kg): 48.38±2.31
- Liver Weight ([1]; 30 nmol/kg): 0.995 ± 0.029 g
- Total abdominal fat ([1]; 30 nmol/kg): 0.461 ± 0.034 g
- ALT [1, 3]: 95.60±14.09
- ALT [1, 4]: 43.90±3.86
- ALT [1, 5]: 52.80±9.62
- ALT [1, 6]: 49.60±5.67
- GIPR EC50 ratio [2]: 5.34
